“Also recorded” adds a separate entry of the source.

One test relates to C1039G/+ mice. As to the kind of experiment: Aortic wall histology (elastic matrix architecture) in treated C1039G/+ mice. The note with it: 4 months of treatment. It is filed as in vivo, mouse.
Test [1] concerns TGFβ signaling cascade (TSP1, pSmad2, periostin). The test is described as follows: Immunofluorescent analysis of proteins downstream of angiotensin II type 1 receptor in mdx muscle. The note with it: monopotassium salt. It is filed as in vivo, mouse. The protocol: Immunofluorescent studies were performed as previously described (Cohn, R. D. et al. (2002) Cell 110, 639-48). […] The following antibodies were used in this study: goat polyclonal anti-pSmad 2/3, rabbit polyclonal anti c-met and rabbit polyclonal anti-myogenin (all from Santa Cruz Biotechnology Inc.); rabbit polyclonal anti-pSmad2 (#3104, Cell Signal) rat polyclonal anti-lamininyl, rabbit polyclonal anti-dystrophin, rabbit polyclonal antithrombospondin-1 and rabbit polyclonal anti-periostin (all from Abcam); rabbit polyclonal anti-fibrillin-1 (pAb 9543) (Judge, D. P. et al. (2004) J Clin Invest 114, 172-81); goat polyclonal anti-vimentin (Sigma) and, mouse monoclonal anti-beta-sarcoglycan mouse monoclonal anti-developmental myosin (Novocastra). Anti a-dystroglycan antibody IIH6 was generously supplied by Dr. Kevin Campbell, Iowa. Secondary Alexa fluor donkey anti-rabbit, anti-rat, anti mouse IgM and IgG1 and anti-goat conjugated antibodies (Molecular probes) were applied for 1 hour at room temperature. Nuclei were stained with DAPI for 5 minutes, and inverted coverslips were mounted onto glass slides using Cytoseal (Vector Laboratories).
It has recently been shown that thrombospondin-1 (TSP1) acts as a potent mediator of angiotensin II induced TGF-beta activation via AT I R (Zhou Y, et al. (2006) Biochem Biophys Res Commun. 339, 633-641). […] Therefore, the expression of dystrophin, a-dystroglycan and R-sarcoglycan in losartan-treated and untreated mdx mice was investigated.

For the next test, the system named is Fbn1C1039G/+ mice. The test is described as follows: Prenatal treatment with losartan and propranolol, aorta of Fbn1C1039G/+ mice. In kind it is in vivo, mouse. The following applies: prenatal start. From the text: Treatment of the mothers continued throughout lactation and was maintained in the pups after weaning. Mice were killed at 10 months of age. […] The average aortic wall thickness for untreated wild-type animals was smaller than that in placebo-treated Fbn1C1039G/+ mice (P<0.0001) but was indistinguishable from that in losartan-treated Fbn1C1039G/+ mice (P=0.24, FIG. 20E).

The subject of a further test is mdx mice. The test is described as follows: Muscle regeneration after cardiotoxin injury in 9-month old mdx mice. It is filed as in vivo, mouse. The protocol:
All mouse protocols were approved by the Animal Care and Use Committee of Johns Hopkins University School of Medicine. Creation of the mouse line harboring the Fbn1 mutation C1039G has been previously described (Judge, D. P. et al. (2004) J Clin Invest 114, 172-81). All analyses were performed in male mice after back-crossing (>9 times) this mutation into the C57BL/6J background, allowing valid comparisons between litters. Mice were sacrificed with an inhalation overdose of halothane (Sigma-Aldrich) or by cervical dislocation. For muscle regeneration experiments in Fbn1^C1039G/+ mice, 100 μl cardiotoxin (10 μM Naja nigricollis; Calbiochem, La Jolla, Calif.) (Goetsch, S. C. et al. (2003) Physiol Genomics 14, 261-71; Cohn, R. D. et al. (2002) Cell 110, 639-48) was injected into the tibialis anterior muscle of wild-type and Fbn1^C1039G/+ mice either treated or untreated with TGFβ neutralizing antibody (n=6, each group) at 4 months of age. Subsequently, mice were analyzed at 4, 7, 18 and 28 days after injury. For regeneration experiments in mdx mice we injected 150 μl of cardiotoxin into the tibialis anterior muscle of wild-type and mdx mice, either treated or untreated with TGFβ neutralizing antibody (n=6 each group) at 9 months of age and analyzed skeletal muscle at 4 days and 18 days after injection.
Mice were continued on oral therapy for 6 months and sacrificed. […] Age-matched wild-type and mdx mice (placebo-treated) served as a control group. After 6 months of treatment, forelimb and hindlimb grip strength was assessed using an automated grip strength meter (Columbus Instruments, Columbus, Ohio). […] Total peak force (in Newtons) was determined by an electronic strain gauge as previously described and corrected for body weight (Wagner, K. R., et al. (2002) Ann Neurol 52, 832-6). […] The degree of fatigue was calculated by comparing the first two pulls to the last two pulls with the decrement between pulls 1+2 and pulls 4+5 providing a measure of fatigue. […]

Test [2] concerns young patients with an aggressive rate of aortic growth. As to the kind of experiment: Losartan in young patients with aggressive rate of aortic growth despite standard therapy. In kind it is in vivo, human. The following applies: n=8, despite β-adrenergic/ACE blockade, monopotassium salt. As to the method: Markers of TGFβ antagonism have included reduced plasma levels of free TGFβ, reduced intracellular initiation of the TGFβ signaling cascade, and reduced tissue expression of TGFβ-responsive genes. […] Three independent measurements of the aortic root were made from the long axis echo view in systole at each of 3 time points (baseline, 2 and 4 months of treatment; FIG. 8A). All analyses were performed blinded to genotype and treatment arm. […] This represents the first therapeutic strategy for MFS that derives from interrogation of disease pathogenesis and the first possibility for primary prevention of disease manifestations.

Where [3] appears, read: 10 months of treatment, monopotassium salt.

Turning to `CCCCc1nc(Cl)c(CO)n1Cc1ccc(-c2ccccc2-c2nnn[nH]2)cc1.[K]` [losartan, 2-butyl-4-chloro-1-[p-(o-1H-tetrazol-5-ylphenyl)benzyl]imidazole-5-methanol monopotassium salt], the “Elastic matrix architecture / histologic parameters of the aorta” value in the test on C1039G/+ mice is recorded as “normalized”. In addition, the “Expression of thrombospondin-1 (TSP1)” value in test [1] (mdx diaphragm and other muscles) is listed as “greatly reduced expression of TSP1”. Also, in test [1] (mdx mice), the “Dystrophin, a-dystroglycan, sarcoglycan expression / ubiquitin mediated proteolysis” value is recorded as “did not have any impact; also recorded: absent”; the “Nuclear accumulation of pSmad2 and sarcolemmal expression of periostin” value is listed as “did not show any significant nuclear accumulation of pSmad2 or sarcolemmal expression of periostin; also recorded: diminished”. Further, the Aortic dilatation entry in the test with Fbn1C1039G/+ mice (10 months) is “indistinguishable from wild-type littermates”. Moreover, in the test with Fbn1C1039G/+ mice (setting [3]), the “Aortic wall architecture score” value is reported as “normalized; also recorded: improvement” and the “Average aortic wall thickness” value is “indistinguishable; also recorded: full normalization of wall thickness”. Also, the “Muscle regeneration in mdx mice, in words” value with mdx mice (4 days after cardiotoxin, neonatal myosin staining) was “active regeneration comparable to that seen in wild-type mice”. Moreover, the “Fibrosis (vimentin) after injury, in words” value with mdx mice (18 days after cardiotoxin, monopotassium salt) is on record as “reduced fibrosis; also recorded: marked reduction in fibrosis”. Also, in the test with mdx mice (four days after injury, untreated mdx 268±12, wild-type 689±19), the “Neonatal myosin positive fibers” value is recorded as 513±14 neonatal myosin positive fibers per tibialis anterior muscle. Besides, in test [2] (listed as Losartan), the “Response of aortic growth in patients” value is listed as “effective”. The “Response of aortic growth in patients” value in test [2] is given as “remarkable response”.
